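Assay format: 96-well plates, 48-hour exposure. At the GI50, growth is halved.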 The source made the active and inactive calls. No stated cut-off is given here; in the data, active = GI50 up to about 1.1 µM and inactive = higher.
Assays:
Test in all cases: DTP human tumour cell line panel, 48 h
SF-295 = test system: SF-295
OVCAR-4 = test system: OVCAR-4
KM12 = test system: KM12
A549 = test system: A549
RPMI-8226 = test system: RPMI-8226
UO-31 = test system: UO-31
U-251 = test system: U-251
NCI-H460 = test system: NCI-H460
HCT-15 = test system: HCT-15
OVCAR-8 = test system: OVCAR-8
LOX IMVI = test system: LOX IMVI
UACC-257 = test system: UACC-257
NCI-H226 = test system: NCI-H226
EKVX = test system: EKVX
SNB-19 = test system: SNB-19
CCRF-CEM = test system: CCRF-CEM
UACC-62 = test system: UACC-62
HOP-92 = test system: HOP-92
SK-MEL-2 = test system: SK-MEL-2
NCI-H522 = test system: NCI-H522

## C(=N\c1ccc(-c2cc(-c3ccccc3)nc3ccc4ccccc4c23)cc1)/c1ccccc1
SF-295
  GI50: 10.9 µM (inactive)
OVCAR-4
  GI50: 2.39 µM (inactive)
KM12
  GI50: 10.8 µM (inactive)
A549
  GI50: 13.6 µM (inactive)
RPMI-8226
  GI50: 15.6 µM (inactive)
UO-31
  GI50: 15.9 µM (inactive)
U-251
  GI50: 36.5 µM (inactive)
NCI-H460
  GI50: 19.9 µM (inactive)
HCT-15
  GI50: 8.26 µM
OVCAR-8
  GI50: 26 µM (inactive)
LOX IMVI
  GI50: 19.9 µM (inactive)
UACC-257
  GI50: 23.5 µM (inactive)
NCI-H226
  GI50: 22.3 µM (inactive)
EKVX
  GI50: 18.1 µM (inactive)
SNB-19
  GI50: 18.5 µM (inactive)
CCRF-CEM
  GI50: 16 µM (inactive)
UACC-62
  GI50: 20.8 µM (inactive)

## C#CCCCC(=C)C[C@H](OCc1ccccc1)[C@H]1OC(=O)[C@@H]1C
SF-295
  GI50: 89.7 µM (inactive)
OVCAR-4
  GI50: > 100 µM (inactive)
KM12
  GI50: 39 µM (inactive)
A549
  GI50: 56.4 µM (inactive)
RPMI-8226
  GI50: 11.5 µM (inactive)
UO-31
  GI50: 23.9 µM (inactive)
U-251
  GI50: > 100 µM (inactive)
NCI-H460
  GI50: > 100 µM (inactive)
HCT-15
  GI50: 79.4 µM
OVCAR-8
  GI50: 31.8 µM (inactive)
UACC-257
  GI50: > 100 µM (inactive)
NCI-H226
  GI50: 96.4 µM (inactive)
EKVX
  GI50: > 100 µM (inactive)
HOP-92
  GI50: 37.6 µM (inactive)
SNB-19
  GI50: > 100 µM (inactive)
CCRF-CEM
  GI50: > 100 µM (inactive)
UACC-62
  GI50: > 100 µM (inactive)
SK-MEL-2
  GI50: > 100 µM (inactive)

## COc1ccc(CCn2cnc3ccccc32)cc1
SF-295
  GI50: > 100 µM (inactive)
OVCAR-4
  GI50: > 100 µM (inactive)
KM12
  GI50: > 100 µM (inactive)
A549
  GI50: > 100 µM (inactive)
RPMI-8226
  GI50: > 100 µM (inactive)
UO-31
  GI50: > 100 µM (inactive)
U-251
  GI50: > 100 µM (inactive)
NCI-H460
  GI50: > 100 µM (inactive)
HCT-15
  GI50: > 100 µM
OVCAR-8
  GI50: > 100 µM (inactive)
UACC-257
  GI50: > 100 µM (inactive)
NCI-H226
  GI50: > 100 µM (inactive)
EKVX
  GI50: > 100 µM (inactive)
HOP-92
  GI50: > 100 µM (inactive)
SNB-19
  GI50: > 100 µM (inactive)
CCRF-CEM
  GI50: > 100 µM (inactive)
UACC-62
  GI50: > 100 µM (inactive)
NCI-H522
  GI50: > 100 µM (inactive)
SK-MEL-2
  GI50: > 100 µM (inactive)

## CN(C)c1ccc(/C=C/C(=O)C(C)(C)C)cc1Br
SF-295
  GI50: 40.3 µM (inactive)
OVCAR-4
  GI50: 19.9 µM (inactive)
KM12
  GI50: 24.1 µM (inactive)
A549
  GI50: 39.9 µM (inactive)
RPMI-8226
  GI50: 19.5 µM (inactive)
UO-31
  GI50: 32.1 µM (inactive)
U-251
  GI50: 27.4 µM (inactive)
NCI-H460
  GI50: 35.8 µM (inactive)
HCT-15
  GI50: 19.9 µM
OVCAR-8
  GI50: 21.8 µM (inactive)
UACC-257
  GI50: 24 µM (inactive)
EKVX
  GI50: 44.4 µM (inactive)
SNB-19
  GI50: 31.6 µM (inactive)
CCRF-CEM
  GI50: 24.6 µM (inactive)
UACC-62
  GI50: 16.7 µM (inactive)
NCI-H522
  GI50: 16.1 µM (inactive)
SK-MEL-2
  GI50: 18.9 µM (inactive)

## CO/C=C(/C(=O)OC)[C@@H]1C[C@@H]1c1ccc2ccccc2c1
SF-295
  GI50: 37.2 µM (inactive)
OVCAR-4
  GI50: 16.9 µM (inactive)
KM12
  GI50: 21.7 µM (inactive)
A549
  GI50: 18.7 µM (inactive)
RPMI-8226
  GI50: 20.3 µM (inactive)
UO-31
  GI50: 30.3 µM (inactive)
U-251
  GI50: 27.4 µM (inactive)
NCI-H460
  GI50: 27.2 µM (inactive)
HCT-15
  GI50: 18.8 µM
OVCAR-8
  GI50: 34 µM (inactive)
UACC-257
  GI50: 26 µM (inactive)
NCI-H226
  GI50: 29.2 µM (inactive)
EKVX
  GI50: 19.2 µM (inactive)
HOP-92
  GI50: 19.8 µM (inactive)
SNB-19
  GI50: 56.5 µM (inactive)
CCRF-CEM
  GI50: 27.6 µM (inactive)
UACC-62
  GI50: 32.5 µM (inactive)
NCI-H522
  GI50: 12 µM (inactive)
SK-MEL-2
  GI50: 15.2 µM (inactive)

## O=C(/C=C/c1cccs1)c1ccc(C(=O)/C=C/c2cccs2)cc1
SF-295
  GI50: > 100 µM (inactive)
OVCAR-4
  GI50: > 100 µM (inactive)
KM12
  GI50: > 100 µM (inactive)
A549
  GI50: > 100 µM (inactive)
UO-31
  GI50: > 100 µM (inactive)
U-251
  GI50: > 100 µM (inactive)
NCI-H460
  GI50: > 100 µM (inactive)
HCT-15
  GI50: > 100 µM
OVCAR-8
  GI50: > 100 µM (inactive)
UACC-257
  GI50: > 100 µM (inactive)
NCI-H226
  GI50: > 100 µM (inactive)
EKVX
  GI50: > 100 µM (inactive)
HOP-92
  GI50: > 100 µM (inactive)
SNB-19
  GI50: > 100 µM (inactive)
UACC-62
  GI50: > 100 µM (inactive)
NCI-H522
  GI50: > 100 µM (inactive)

## COc1ccc(C(=O)OCC2OC(n3cnc4c(=S)nc[nH]c43)C(OC(=O)c3ccc(OC)cc3)C2OC(=O)c2ccc(OC)cc2)cc1 (configuration not stated)
SF-295
  GI50: 33.1 µM (inactive)
OVCAR-4
  GI50: 7.82 µM (inactive)
KM12
  GI50: 45.6 µM (inactive)
A549
  GI50: > 100 µM (inactive)
RPMI-8226
  GI50: 4.36 µM (inactive)
UO-31
  GI50: 55.1 µM (inactive)
U-251
  GI50: > 100 µM (inactive)
NCI-H460
  GI50: 43.1 µM (inactive)
HCT-15
  GI50: 47.2 µM
OVCAR-8
  GI50: 28.5 µM (inactive)
UACC-257
  GI50: 16.8 µM (inactive)
NCI-H226
  GI50: 30.1 µM (inactive)
HOP-92
  GI50: 6.05 µM (inactive)
SNB-19
  GI50: > 100 µM (inactive)
CCRF-CEM
  GI50: 8.47 µM (inactive)
UACC-62
  GI50: 13.3 µM (inactive)
NCI-H522
  GI50: 7 µM (inactive)
SK-MEL-2
  GI50: 12.8 µM (inactive)

## CC(C)c1cccc2sc(NC(=O)C(=O)C(C#N)c3cccc4ccccc34)nc12 (configuration not stated)
SF-295
  GI50: 69.7 µM (inactive)
OVCAR-4
  GI50: 29.8 µM (inactive)
KM12
  GI50: > 100 µM (inactive)
A549
  GI50: 80.7 µM (inactive)
UO-31
  GI50: 31.4 µM (inactive)
U-251
  GI50: 57.5 µM (inactive)
NCI-H460
  GI50: > 100 µM (inactive)
HCT-15
  GI50: 75.5 µM
OVCAR-8
  GI50: 72.1 µM (inactive)
UACC-257
  GI50: 92.3 µM (inactive)
NCI-H226
  GI50: 71.1 µM (inactive)
EKVX
  GI50: 10.9 µM (inactive)
HOP-92
  GI50: 30.4 µM (inactive)
SNB-19
  GI50: > 100 µM (inactive)
CCRF-CEM
  GI50: 41.8 µM (inactive)
UACC-62
  GI50: 57.4 µM (inactive)
NCI-H522
  GI50: 54.1 µM (inactive)
SK-MEL-2
  GI50: 45.2 µM (inactive)

Source: ChEMBL document CHEMBL1201862, “PubChem BioAssay data set” (2004)
